{
  "source": "paper PMC11520585",
  "about": "(BMC Neuroscience, 2024)",
  "key": {"[1]": {"tested_on": "organotypic hippocampal slice cultures", "experiment": "organotypic hippocampal slice culture neuroprotection assay", "assay_type": "cell-based, rat", "settings": "ZA-II-05 100 µM, NMDA 10 µM insult, P < 0.05"}, "C. elegans [2]": {"tested_on": "C. elegans", "settings": "in vivo"}, "C. elegans [3]": {"tested_on": "C. elegans", "assay_type": "in vivo", "settings": "ZA-II-05 1 mg/ml treated groups, 24 h"}, "C. elegans [4]": {"tested_on": "C. elegans", "assay_type": "in vivo", "settings": "ZA-II-05 1 mg/ml treated groups, 24 h", "remark": "listed apart in the source"}, "C. elegans [5]": {"tested_on": "C. elegans", "settings": "in vivo", "remark": "listed apart in the source"}, "Opioid receptors (KOR)": {"molecular_target": "Opioid receptors (KOR)", "settings": "read-out: Ki, Opioid receptors (KOR); competitive radioligand binding; cited from earlier work"}, "µ-opioid receptors (MOR)": {"molecular_target": "µ-opioid receptors (MOR)", "settings": "read-out: Ki, µ-opioid receptors (MOR); competitive radioligand binding; cited from earlier work"}, "Sigma2 receptor": {"molecular_target": "Sigma2 receptor", "settings": "read-out: Ki, Sigma2 receptor; competitive radioligand binding; cited from earlier work"}, "[6]": {"molecular_target": "GluN1/GluN2A subtype receptors", "settings": "read-out: mean IC50, GluN1/GluN2A; cited from earlier work"}, "[7]": {"molecular_target": "GluN1/GluN2B subtype receptors", "settings": "read-out: mean IC50, GluN1/GluN2B; cited from earlier work"}, "[8]": {"tested_on": "maximal electroshock seizures", "settings": "100 and 300 mg/kg (i.p.); cited from earlier work"}, "[9]": {"tested_on": "vanadium-induced neurotoxicity", "settings": "vanadium-exposed mice; cited from earlier work"}},
  "data": [
    {"smiles": "Fc1ccc(C2(NCCCOC3CCCCO3)CC3CCC2C3)cc1", "note": "(stereo not drawn) [ZA-II-05, 2-[4-Fluorophenyl]-N-(3-[tetrahydro-2H-pyran-2-yloxy]propyl) bicyclo [2.2.1] heptan-2-amine]", "values": [
      {"measurement": "neuroprotection (propidium iodide fluorescence intensity vs NMDA group)", "setting": "[1]", "value": "significant neuroprotective effect"},
      {"measurement": "growth pattern (body length, body wall)", "setting": "C. elegans [2]", "value": "reversed this effect"},
      {"measurement": "nuclei in ventral nerve cord (DAPI)", "setting": "C. elegans [3]", "value": "preserved the nucleus"},
      {"measurement": "mitochondrial density (fluorescence intensity)", "setting": "C. elegans [4]", "value": "dense presence of mitochondria"},
      {"measurement": "mitochondrial superoxide (MitoSOX fluorescence), effect on vanadium-induced ROS", "setting": "C. elegans [5]", "value": "alleviated"},
      {"measurement": "Ki", "setting": "Opioid receptors (KOR)", "value": 361, "unit": "nM"},
      {"measurement": "Ki", "setting": "µ-opioid receptors (MOR)", "value": 3.04, "unit": "µM"},
      {"measurement": "Ki", "setting": "Sigma2 receptor", "value": 5.5, "unit": "nM"},
      {"measurement": "IC50", "setting": "[6]", "value": 518, "unit": "nM"},
      {"measurement": "IC50", "setting": "[7]", "value": 430, "unit": "nM"},
      {"measurement": "activity in maximal electroshock seizure (MES) assessment", "setting": "[8]", "value": "activity"},
      {"measurement": "protection against neuronal damage", "setting": "[9]", "value": "considerable protection against neuronal damage"}
    ]}
  ]
}
